The results in this text go back to EPA's ToxValDB 9.5 (doi:10.2903/j.efsa.2010.1645).

The NOAEL is the highest tested level that showed no adverse finding.

One data set deals with Apis mellifera. The following applies: acute, duration: 48 hours, mortality.
The next data set deals with Glycine sp. The following applies: chronic/long-term; seedling emergence.
Another data set has as its system Oncorhynchus mykiss. The following applies: acute; duration: 96 hours; mortality.
The subject of another data set is Folsomia candida. The conditions noted are these: chronic/long-term; duration: 28 days; reproduction.
The subject of another data set is Daphnia magna. The conditions noted are these: chronic/long-term; duration: 21 days; reproduction.
In a further data set the test system is Pimephales promelas. The conditions noted are these: chronic/long-term; duration: 35 days; growth.
The subject of the next data set is Bibionidae. The following applies: chronic/long-term; duration: 28 days; development.
The next data set concerns Typhlodromus pyri. In words: LR50; higher = less toxic. The conditions noted are these: acute; duration: 7 days; mortality.

Each structure is given as a SMILES string. Converted amounts (≈) assume the structure as drawn. Some results are limits rather than exact numbers.

On to `CC(C)[C@@H](Nc1ccc(C(F)(F)F)cc1Cl)C(=O)OC(C#N)c1cccc(Oc2ccccc2)c1` (stereo not given in full) [tau-Fluvalinate], for which the LD50 with Apis mellifera (dermal) came to 12 µg/piece; in the data set on Apis mellifera (oral, unspecified) it was 12.6 µg/piece. In addition, the NOEC in the data set with Glycine sp. was less than 6.25 g/ha; in the data set on Folsomia candida, 9.6 mg/kg; in the data set on Daphnia magna, 2.1e-05 mg/L; in the data set on Pimephales promelas it was 6.4e-05 mg/L; in the data set with Tagia sp. (chronic/long-term, duration: 56 days, reproduction) it was greater than 2.88 mg/kg; with Bibionidae, 0.00024 mg/L. Further, the NOAEL came out at 0.5 mg/kg-day in the data set on Rattus norvegicus (chronic, duration: 2 years, body weight); 5 mg/kg-day with Rattus norvegicus (developmental, development); 6 mg/kg-day in the data set on Rattus norvegicus (short-term, duration: 28 days, clinical signs); 1 mg/kg-day with Rattus norvegicus (subchronic, duration: 90 days, oral, diet, body weight). The LC50 is 7.94 ng/mL (≈ 0.0158 µM) in the data set on Oncorhynchus mykiss and greater than 1000 mg/kg with Tagia sp. (acute, duration: 14 days, mortality). For the same compound, the LR50 in the data set on Typhlodromus pyri was found to be 0.049 g/ha.
